Measured values from patent US10010614B2, “Derivatives of GLP-1 like peptides, and uses thereof” (Novo Nordisk A/S, priority 2013, dated 2018).
Numbered stars: 1 amine (or outer) side, 2 acyl side, 3 side chain; on linkers, the order of the positions; unused ones are H or OH. Square brackets hold non-standard residues; d marks the D form. Side chains are listed from the residue outwards. Peptide text beside a SMILES is read from it. * marks the point of attachment. X1 = O=C(O)CCCCCCCCCCCCCCCCCCC(=O)NCC1CCC(C(=O)*)CC1; C20 diacid = O=C(O)CCCCCCCCCCCCCCCCCCC(=O)*; γGlu = O=C(O)[C@H](CCC(=O)[*:2])N[*:1]; εLys = N[C@@H](CCCCN[*:1])C(=O)[*:2]; Trx = NC[C@H]1CC[C@H](C(=O)O)CC1; AEEA = NCCOCCOCC(=O)O; Aib = CC(C)(N)C(=O)O

What was measured:
[1] = Pharmacokinetic study in minipigs (i.v.); assay type: in vivo; details: male, Göttingen, minipig, plasma, iv; read-out: Terminal half-live (converted)
Method: The purpose of this study is to determine the protraction in vivo of the GLP-1 derivatives after i.v. administration to minipigs, i.e. the prolongation of their time in the body and thereby their time of action. This is done in a pharmacokinetic (PK) study, where the terminal half-life of the derivative in question is determined. By terminal half-life is meant the time it takes to halve a certain plasma concentration in the terminal elimination phase.
The derivatives of Examples 1-5 were dosed with 2 nmol/kg, the derivative of Example 6 was dosed with 5 nmol/kg, and the derivatives of Examples 7-9 were dosed with 15 nmol/kg.
Male Göttingen minipigs were obtained from Ellegaard Göttingen Minipigs (Dalmose, Denmark) approximately 7-14 months of age and weighing approximately 16-35 kg were used in the studies. The minipigs were housed either individually (pigs with permanent catheters) or in a group and fed restrictedly once or twice daily with SDS minipig diet (Special Diets Services, Essex, UK).
After at least 2 weeks of acclimatisation two permanent central venous catheters were implanted in vena cava caudalis or cranialis in each animal. The animals were allowed 1 week recovery after the surgery, and were then used for repeated pharmacokinetic studies with a suitable wash-out period between successive GLP-1 derivative dosings.
The GLP-1 derivatives were dissolved in 50 mM sodium phosphate, 70-145 mM sodium chloride, 0.05% tween 80, pH 7.4 to a concentration of usually from 20-60 nmol/ml.
Intravenous injections (the volume corresponding to for example 0.050-0.125 ml/kg) of the compounds were given through one catheter or through the venflon, and blood was sampled at predefined time points for up till 25 days post dosing (preferably through the other catheter or by venipuncture). Blood samples (for example 0.8 ml) were collected in EDTA buffer (8 mM) and then centrifuged at 4° C. and 1942G for 10 minutes.
Plasma was pipetted into Micronic tubes on dry ice, and kept at −20° C. until analysed for plasma concentration of the respective GLP-1 compound using LOCI. Individual plasma concentration-time profiles were analyzed by a non-compartmental pharmacokinetic method in Phoenix v. 6.2 (Pharsight Inc., Mountain View, Calif., USA), or other relevant software for PK analysis, and the resulting terminal half-lives (harmonic mean) determined.

human GLP-1 receptor [2] = target: T1, human GLP-1 receptor (Homo sapiens, UniProt P43220); test: GLP-1 receptor binding, competitive binding assay (125I-GLP-1, SPA) on isolated membranes;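 note: test compounds added at a range of concentrations to membranes from cells expressing the human GLP-1 receptor, scored by displacement of labelled ligand, read with WGA SPA beads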
T1 construct: expressed in transfected cells; host or cells: membranes prepared from BHK cells (parent line BHKTS13), clone FCW467-12A
T1 sequence (P43220 24-463): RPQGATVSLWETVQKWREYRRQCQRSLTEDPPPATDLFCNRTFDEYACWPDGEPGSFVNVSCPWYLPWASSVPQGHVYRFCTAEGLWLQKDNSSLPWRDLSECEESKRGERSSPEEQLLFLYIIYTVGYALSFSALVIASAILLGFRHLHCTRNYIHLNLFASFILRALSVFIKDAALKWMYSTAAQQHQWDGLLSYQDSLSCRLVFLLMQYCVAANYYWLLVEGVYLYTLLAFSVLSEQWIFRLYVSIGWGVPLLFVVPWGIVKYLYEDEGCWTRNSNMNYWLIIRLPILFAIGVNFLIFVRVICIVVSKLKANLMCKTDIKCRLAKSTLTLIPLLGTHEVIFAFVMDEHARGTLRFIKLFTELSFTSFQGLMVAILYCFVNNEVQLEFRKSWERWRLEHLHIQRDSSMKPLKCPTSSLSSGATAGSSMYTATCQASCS
Method: The purpose of this example is to test the receptor binding of the GLP-1 derivatives in vitro. The receptor binding is a measure of affinity of a derivative for the human GLP-1 receptor.
In this type of assay a labelled ligand (in this case ^125I-GLP-1) is bound to the receptor. Each derivative is added in a series of concentrations to isolated membranes containing the human GLP-1 receptor and displacement of the labelled ligand is monitored. The receptor binding is reported as the concentration at which half of the labelled ligand is displaced from the receptor, the IC50 value.
The following chemicals were used in the assay: Human serum albumin (HSA) (Sigma A1653), DMEM w/o phenol red (Gibco 11880-028), Pen/strep (Invitrogen 15140-122), G418 (Invitrogen 10131-027), 1 M Hepes (Gibco 15630), EDTA (Invitrogen 15575-038), PBS (Invitrogen 14190-094), fetal calf serum (Invitrogen 16140-071), EGTA, MgCl2 (Merck 1.05832.1000), Tween 20 (Amresco 0850C335), SPA particles (wheat germ agglutinin (WGA) SPA beads, Perkin Elmer RPNQ0001), [^125I]-GLP-1]-(7-36)NH2 (produced in-house), OptiPlate™-96 (Packard 6005290).
Buffer 1 consisted of 20 mM Na-HEPES plus 10 mM EDTA and pH was adjusted to 7.4. Buffer 2 consisted of 20 mM Na-HEPES plus 0.1 mM EDTA and pH was adjusted to 7.4. Assay buffer consisted of 50 mM HEPES supplemented with 5 mM EGTA, 5 mM MgCl2, 0.005% Tween 20 and pH was adjusted to 7.4. An 8% albumin stock consisted of HSA dissolved at 8% (w/v) in assay buffer. An 0.02% albumin stock consisted of HSA dissolved at 0.02% (w/v) in assay buffer.
The cells express the human GLP-1 receptor.
The cells were grown at 5% CO2 in DMEM, 10% fetal calf serum, 1% Pen/Strep (Penicillin/Streptomycin) and 1.0 mg/ml of the selection marker G418.
To make a membrane preparation the cells were grown to approximately 80% confluence. The cells were washed twice in phosphate-buffered saline and harvested. The cells were pelleted using a brief centrifugation and the cell pellet was kept on ice. The cell pellet was homogenised with ULTRA-THURRAX™ dispersing instrument for 20-30 seconds in a suitable amount of buffer 1 (e.g., 10 ml). The homogenate was centrifuged for 15 minutes. The pellet was re-suspended (homogenised) in 10 ml buffer 2 and centrifuged. This step was repeated once more. The resulting pellet was re-suspended in buffer 2 and the protein concentration was determined. The membranes were aliquoted and stored at minus 80° C.
For the receptor binding assay in the presence of low HSA (0.005%) 50 μl of the assay buffer was added to each well of an assay plate.
For the receptor binding assay in the presence of high HSA (2%) 50 μl of the 8% albumin stock was added to each well of an assay plate.
Cell membrane aliquots were thawed and diluted to their working concentration. Fifty μl were added to each well in the assay plate.
WGA SPA beads were suspended in assay buffer at 20 mg/ml. The suspension was diluted to 10 mg/ml in assay buffer just prior to addition to the assay plate. Fifty μl were added to each well in the assay plate.
The incubation was started by adding 25 μl of 480 pM solution of [^125I]-GLP-1]-(7-36)NH2 to each well of the assay plate. A 25 μl aliquot was reserved for measuring total counts/well.
The assay plate was incubated for 2 h at 30° C.
The assay plate was centrifuged for 10 min.
The assay plate was read in a Packard TopCount NXT instrument.
The data from the TopCount instrument were transferred to GraphPad Prism software. The software averaged the values for the replicates and performed a non-linear regression. IC50 values were calculated by the software and reported in nM.

human GLP-1 receptor [3] = target: T1, human GLP-1 receptor; test: In vitro potency, CRE luciferase reporter gene assay in BHK cells expressing the human GLP-1 receptor; assay type: cell-based; details: whole cell reporter gene assay, 3 h incubation, no HSA, averages of at least two replicates
Method in brief: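 Stably transfected BHK cells (5×10^3/well) expressing human GLP-1R with a CRE-luciferase reporter; compounds diluted in buffer with 2% ovalbumin and 0.2% Pluronic F-68, final 1×10^−7 to 1×10^−14 M. Incubated 3 h at 37 °C, 5% CO2, then luminescence read; potency from non-linear log(agonist)–response fit, mean of ≥2 replicates.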

[4] = High HSA IC50 (nM), high serum albumin (2.0% HSA final assay concentration)
[5] = Low HSA IC50 (nM), low serum albumin (max. 0.001% final assay concentration)

| Structure (SMILES) | half-life [1] | IC50 (human GLP-1 receptor [2]; [4]) | IC50 (human GLP-1 receptor [2]; [5]) | EC50 (human GLP-1 receptor [3]) |
| --- | --- | --- | --- | --- |
| CC[C@H](C)[C@H](NC(=O)[C@H](Cc1ccccc1)NC(=O)[C@H](CCC(=O)O)NC(=O)[C@H](CCCNC(=N)N)NC(=O)[C@H](C)NC(=O)[C@H](C)NC(=O)[C@H](CCC(N)=O)NC(=O)[C@H](CCC(=O)O)NC(=O)[C@H](CCC(=O)O)NC(=O)[C@H](CC(C)C)NC(=O)[C@H](Cc1ccc(O)cc1)NC(=O)[C@H](CO)NC(=O)[C@H](CO)NC(=O)[C@@H](NC(=O)[C@H](CC(=O)O)NC(=O)[C@H](CO)NC(=O)[C@@H](NC(=O)[C@H](Cc1ccccc1)NC(=O)[C@@H](NC(=O)CNC(=O)[C@H](CCC(=O)O)NC(=O)C(C)(C)NC(=O)[C@@H](N)Cc1c[nH]cn1)[C@@H](C)O)[C@@H](C)O)C(C)C)C(=O)N[C@@H](C)C(=O)N[C@@H](CCCCNC(=O)COCCOCCNC(=O)COCCOCCNC(=O)CC[C@H](NC(=O)[C@H]1CC[C@H](CNC(=O)CCCCCCCCCCCCCCCCCCC(=O)O)CC1)C(=O)O)C(=O)N[C@@H](CC(C)C)C(=O)N[C@H](C(=O)N[C@@H](CCCNC(=N)N)C(=O)NCC(=O)N[C@@H](CCCNC(=N)N)C(=O)NCC(=O)NCC(=O)NCC(=O)NCC(=O)N[C@@H](CO)C(=O)N[C@@H](CCCCNC(=O)COCCOCCNC(=O)COCCOCCNC(=O)CC[C@H](NC(=O)[C@H]1CC[C@H](CNC(=O)CCCCCCCCCCCCCCCCCCC(=O)O)CC1)C(=O)O)C(=O)O)C(C)C [Example 2] (H-H[Aib]EGTFTSDVSSYLEEQAAREFIAK([AEEA-AEEA-γGlu-Trx-C20 diacid])LVRGRGGGGSK([AEEA-AEEA-γGlu-Trx-C20 diacid])-OH) | 110 h | ≥ 1000 nM | 1.4 nM | 0.036 nM |
| CC[C@H](C)[C@H](NC(=O)[C@H](Cc1ccccc1)NC(=O)[C@H](CCC(=O)O)NC(=O)[C@H](CCCNC(=N)N)NC(=O)[C@H](C)NC(=O)[C@H](C)NC(=O)[C@H](CCC(N)=O)NC(=O)[C@H](CCC(=O)O)NC(=O)[C@H](CCC(=O)O)NC(=O)[C@H](CC(C)C)NC(=O)[C@H](Cc1ccc(O)cc1)NC(=O)[C@H](CO)NC(=O)[C@H](CO)NC(=O)[C@@H](NC(=O)[C@H](CC(=O)O)NC(=O)[C@H](CO)NC(=O)[C@@H](NC(=O)[C@H](Cc1ccccc1)NC(=O)[C@@H](NC(=O)CNC(=O)[C@H](CCC(=O)O)NC(=O)C(C)(C)NC(=O)[C@@H](N)Cc1c[nH]cn1)[C@@H](C)O)[C@@H](C)O)C(C)C)C(=O)N[C@@H](C)C(=O)N[C@@H](Cc1c[nH]c2ccccc12)C(=O)N[C@@H](CC(C)C)C(=O)N[C@H](C(=O)N[C@@H](CCCNC(=N)N)C(=O)NCC(=O)N[C@@H](CCCNC(=N)N)C(=O)NCC(=O)N[C@@H](CCCCNC(=O)COCCOCCNC(=O)COCCOCCNC(=O)CC[C@H](NC(=O)[C@H]1CC[C@H](CNC(=O)CCCCCCCCCCCCCCCCCCC(=O)O)CC1)C(=O)O)C(=O)NCC(=O)NCC(=O)N[C@@H](CO)C(=O)N[C@@H](CCCCNC(=O)COCCOCCNC(=O)COCCOCCNC(=O)CC[C@H](NC(=O)[C@H]1CC[C@H](CNC(=O)CCCCCCCCCCCCCCCCCCC(=O)O)CC1)C(=O)O)C(=O)O)C(C)C [Example 3] (H-H[Aib]EGTFTSDVSSYLEEQAAREFIAWLVRGRGK([AEEA-AEEA-γGlu-Trx-C20 diacid])GGSK([AEEA-AEEA-γGlu-Trx-C20 diacid])-OH) | 147 h | 185 nM | 1.2 nM | 0.043 nM |
| CC[C@H](C)[C@H](NC(=O)[C@H](Cc1ccccc1)NC(=O)[C@H](CCC(=O)O)NC(=O)[C@H](CCCNC(=N)N)NC(=O)[C@H](C)NC(=O)[C@H](C)NC(=O)[C@H](CCCCNC(=O)COCCOCCNC(=O)COCCOCCNC(=O)CC[C@H](NC(=O)C1CCC(CNC(=O)CCCCCCCCCCCCCCCCCCC(=O)O)CC1)C(=O)O)NC(=O)[C@H](CCC(=O)O)NC(=O)[C@H](CCC(=O)O)NC(=O)[C@H](CC(C)C)NC(=O)[C@H](Cc1ccc(O)cc1)NC(=O)[C@H](CO)NC(=O)[C@H](CO)NC(=O)[C@@H](NC(=O)[C@H](CC(=O)O)NC(=O)[C@H](CO)NC(=O)[C@@H](NC(=O)[C@H](Cc1ccccc1)NC(=O)[C@@H](NC(=O)CNC(=O)[C@H](CCC(=O)O)NC(=O)C(C)(C)NC(=O)[C@@H](N)Cc1c[nH]cn1)[C@@H](C)O)[C@@H](C)O)C(C)C)C(=O)N[C@@H](C)C(=O)N[C@@H](Cc1c[nH]c2ccccc12)C(=O)N[C@@H](CC(C)C)C(=O)N[C@H](C(=O)N[C@@H](CCCNC(=N)N)C(=O)NCC(=O)N[C@@H](CCCNC(=N)N)C(=O)NCC(=O)NCC(=O)NCC(=O)NCC(=O)N[C@@H](CO)C(=O)N[C@@H](CCCCNC(=O)COCCOCCNC(=O)COCCOCCNC(=O)CC[C@H](NC(=O)C1CCC(CNC(=O)CCCCCCCCCCCCCCCCCCC(=O)O)CC1)C(=O)O)C(=O)O)C(C)C (some centres unmarked) [Example 4] (H-H[Aib]EGTFTSDVSSYLEEK([AEEA-AEEA-γGlu-X1])AAREFIAWLVRGRGGGGSK([AEEA-AEEA-γGlu-X1])-OH; N-terminus and C-terminus assumed) | 137 h | – | – | – |
| CC[C@H](C)[C@H](NC(=O)[C@H](Cc1ccccc1)NC(=O)[C@H](CCC(=O)O)NC(=O)[C@H](CCCNC(=N)N)NC(=O)[C@H](C)NC(=O)[C@H](C)NC(=O)[C@H](CCC(N)=O)NC(=O)[C@H](CCC(=O)O)NC(=O)[C@H](CCC(=O)O)NC(=O)[C@H](CC(C)C)NC(=O)[C@H](Cc1ccc(O)cc1)NC(=O)[C@H](CO)NC(=O)[C@H](CO)NC(=O)[C@@H](NC(=O)[C@H](CC(=O)O)NC(=O)[C@H](CO)NC(=O)[C@@H](NC(=O)[C@H](Cc1ccccc1)NC(=O)[C@@H](NC(=O)CNC(=O)[C@H](CCC(=O)O)NC(=O)C(C)(C)NC(=O)[C@@H](N)Cc1c[nH]cn1)[C@@H](C)O)[C@@H](C)O)C(C)C)C(=O)N[C@@H](C)C(=O)N[C@@H](Cc1c[nH]c2ccccc12)C(=O)N[C@@H](CC(C)C)C(=O)N[C@H](C(=O)N[C@@H](CCCNC(=N)N)C(=O)NCC(=O)N[C@@H](CCCCNC(=O)COCCOCCNC(=O)COCCOCCNC(=O)CC[C@H](NC(=O)C1CCC(CNC(=O)CCCCCCCCCCCCCCCCCCC(=O)O)CC1)C(=O)O)C(=O)NCC(=O)NCC(=O)NCC(=O)NCC(=O)N[C@@H](CO)C(=O)N[C@@H](CCCCNC(=O)COCCOCCNC(=O)COCCOCCNC(=O)CC[C@H](NC(=O)C1CCC(CNC(=O)CCCCCCCCCCCCCCCCCCC(=O)O)CC1)C(=O)O)C(=O)O)C(C)C (some centres unmarked) [Example 5] (H-H[Aib]EGTFTSDVSSYLEEQAAREFIAWLVRGK([AEEA-AEEA-γGlu-X1])GGGGSK([AEEA-AEEA-γGlu-X1])-OH; N-terminus and C-terminus assumed) | 131 h | – | – | – |
| CC[C@H](C)[C@H](NC(=O)[C@H](Cc1ccccc1)NC(=O)[C@H](CCC(=O)O)NC(=O)[C@H](CCCNC(=N)N)NC(=O)[C@H](C)NC(=O)[C@H](C)NC(=O)[C@H](CCC(N)=O)NC(=O)[C@H](CCC(=O)O)NC(=O)[C@H](CCC(=O)O)NC(=O)[C@H](CC(C)C)NC(=O)[C@H](Cc1ccc(O)cc1)NC(=O)[C@H](CO)NC(=O)[C@H](CO)NC(=O)[C@@H](NC(=O)[C@H](CC(=O)O)NC(=O)[C@H](CO)NC(=O)[C@@H](NC(=O)[C@H](Cc1ccccc1)NC(=O)[C@@H](NC(=O)CNC(=O)[C@H](CCC(=O)O)NC(=O)C(C)(C)NC(=O)[C@@H](N)Cc1c[nH]cn1)[C@@H](C)O)[C@@H](C)O)C(C)C)C(=O)N[C@@H](C)C(=O)N[C@@H](Cc1c[nH]c2ccccc12)C(=O)N[C@@H](CC(C)C)C(=O)N[C@H](C(=O)N[C@@H](CCCNC(=N)N)C(=O)NCC(=O)N[C@@H](CCCNC(=N)N)C(=O)NCC(=O)N[C@@H](CCCCNC(=O)[C@@H](N)CCCCNC(=O)[C@@H](N)CCCCNC(=O)CC[C@H](NC(=O)[C@H]1CC[C@H](CNC(=O)CCCCCCCCCCCCCCCCCCC(=O)O)CC1)C(=O)O)C(=O)NCC(=O)NCC(=O)N[C@@H](CO)C(=O)N[C@@H](CCCCNC(=O)[C@@H](N)CCCCNC(=O)[C@@H](N)CCCCNC(=O)CC[C@H](NC(=O)[C@H]1CC[C@H](CNC(=O)CCCCCCCCCCCCCCCCCCC(=O)O)CC1)C(=O)O)C(=O)O)C(C)C [Example 7] (H-H[Aib]EGTFTSDVSSYLEEQAAREFIAWLVRGRGK([εLys-εLys-γGlu-Trx-C20 diacid])GGSK([εLys-εLys-γGlu-Trx-C20 diacid])-OH) | 106 h | – | – | – |
